Measured values reported in the supplement of paper PMC10307832.

How the values were obtained:
Assay in all cases: relative viability (nuclei count vs DMSO), 5 days (fraction); higher = more cells survive
[1] = compound: CCOC(=O)CCNc1cc(N2CCc3ccccc3CC2)nc(-c2ccccn2)n1 [GSK-J4] + O=C(c1cc(Cc2n[nH]c(=O)c3ccccc23)ccc1F)N1CCN(C(=O)C2CC2)CC1 [Olaparib] (partner 8 µM)
Procedure, shortened: (§1)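 Lung cancer cell lines were seeded in 1536-well plates and dosed by pin tool the next day, with either a single drug or a fixed anchor-drug dose combined with five library-drug doses (not always all listed) spaced in √10 steps. Five days later, one step fixed the cells and stained their nuclei (final 0.05% Triton X-100, 1% formaldehyde, 1 ug/ml Hoechst), and nuclei were counted on 4× images. Relative viability is the nuclei count in treated wells divided by the count in vehicle wells, and each value is the median of duplicate plates.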

[2] = compound: CCOC(=O)CCNc1cc(N2CCc3ccccc3CC2)nc(-c2ccccn2)n1 [GSK-J4] + CS(=O)(=O)N1CCN(Cc2cc3nc(-c4cccc5[nH]ncc45)nc(N4CCOCC4)c3s2)CC1 [Pictilisib] (partner 1 µM)
Procedure, shortened: as §1

[3] = compound: CN1CCC(CC1)OC2=CC(=C(C=C2)NC3=NC=C4C(=N3)N(C(=O)N4C)C5CCCC5)OC [AZ3146] + Cc1nc(Nc2ncc(C(=O)Nc3c(C)cccc3Cl)s2)cc(N2CCN(CCO)CC2)n1 [Dasatinib] (partner 0.075 µM)
Procedure, shortened: as §1

[4] = compound: CCOC(=O)CCNc1cc(N2CCc3ccccc3CC2)nc(-c2ccccn2)n1 [GSK-J4] + CC(C)C[C@H](NC(=O)[C@H](Cc1ccccc1)NC(=O)c1cnccn1)B(O)O [Bortezomib] (partner 0.002 µM)
Procedure, shortened: as §1

Row | Cell Line | relative viability ([1]; first compound 0.5 µM) | relative viability ([1]; first compound 1.581 µM) | relative viability ([1]; first compound 5 µM) | relative viability ([1]; first compound 15.81 µM) | relative viability ([1]; first compound 50 µM) | relative viability ([2]; first compound 0.5 µM) | relative viability ([2]; first compound 1.581 µM) | relative viability ([2]; first compound 5 µM) | relative viability ([2]; first compound 50 µM) | relative viability ([3]; first compound 0.08 µM) | relative viability ([3]; first compound 0.253 µM) | relative viability ([3]; first compound 0.8 µM) | relative viability ([3]; first compound 2.53 µM) | relative viability ([3]; first compound 8 µM) | relative viability ([4]; first compound 0.5 µM) | relative viability ([4]; first compound 1.581 µM) | relative viability ([4]; first compound 5 µM) | relative viability ([4]; first compound 15.81 µM) | relative viability ([4]; first compound 50 µM) | relative viability ([2]; first compound 15.81 µM)
1 | HCC-78 | 0.688 | 0.774 | 1.1 | 0.656 | 0.742 | 0.202 | 0.185 | 0.889 | 0.225 | 0.254 | 0.304 | 0.309 | 0.354 | 0.315 | 0.442 | 0.509 | 0.565 | 0.422 | 0.491 | 
2 | HCC-366 | 0.362 | 0.308 |  | 0.37 | 0.285 | 0.125 |  | 0.137 | 0.122 | 0.483 | 0.57 | 0.56 | 0.588 | 0.572 | 1 | 1.02 |  | 1.01 | 0.96 | 0.181
3 | HCC-827 | 0.622 | 0.65 | 0.767 | 0.589 | 0.36 | 0.945 | 1.13 | 1.14 | 1.03 | 0.381 | 0.345 | 0.409 | 0.333 | 0.218 | 1.02 | 0.95 | 0.883 | 1.11 | 1.04 | 0.949
4 | HOP-62 | 0.394 | 0.333 | 0.426 | 0.491 | 0.28 | 0.735 | 0.322 | 0.762 | 0.387 | 0.603 | 0.618 | 0.609 | 0.646 | 0.656 | 0.688 | 0.532 | 0.73 | 0.74 | 0.823 | 0.76
5 | IA-LM | 0.872 | 0.9 | 0.874 | 0.706 | 0.169 | 0.376 | 0.202 | 0.489 | 0.0942 |  |  |  |  |  | 0.709 | 0.816 | 0.775 | 0.763 | 0.131 | 0.251
6 | LC-2-ad | 0.69 | 0.643 | 0.672 | 0.701 | 0.55 | 0.548 | 0.458 | 0.622 | 0.322 | 0.549 | 0.746 | 0.584 | 0.665 | 0.527 | 0.932 | 0.907 | 0.749 | 1.01 | 0.94 | 0.547
7 | LCLC-97TM1 | 0.272 | 0.373 | 0.364 | 0.293 | 0.196 |  |  | 0.399 | 0.15 | 0.669 | 0.755 | 0.762 | 0.785 | 0.812 | 0.981 |  | 0.393 | 0.449 | 0.526 | 0.249
8 | LK-2 | 0.675 | 0.628 | 0.98 | 0.592 | 0.364 | 0.573 | 0.531 | 0.736 | 0.443 | 0.376 | 0.218 | 0.279 | 0.25 | 0.322 |  |  |  |  |  | 0.456
9 | NCI-H358 | 0.574 |  | 0.646 | 0.521 | 0.552 | 0.459 | 0.304 | 0.377 | 0.268 | 0.2 | 0.135 | 0.149 | 0.153 | 0.209 |  |  |  |  |  | 0.407
10 | NCI-H522 | 0.597 | 0.552 |  | 0.531 | 0.409 |  |  |  |  | 0.721 | 0.73 | 0.863 | 0.815 | 1.02 |  |  |  |  |  | 
11 | NCI-H1299 | 0.96 | 0.916 | 0.878 | 0.929 | 0.772 | 0.733 | 0.802 | 0.849 | 0.327 |  |  |  |  |  | 1.06 | 0.94 | 0.876 | 0.98 | 0.985 | 0.705
12 | NCI-H1395 | 0.435 | 0.48 | 0.399 | 0.45 | 0.406 | 0.578 | 0.524 | 0.544 | 0.518 | 0.415 | 0.381 | 0.327 | 0.42 | 0.398 |  |  |  |  |  | 0.573
13 | NCI-H1563 |  |  |  |  |  | 0.695 | 0.719 | 0.62 | 0.619 | 0.482 | 0.48 | 0.441 | 0.422 | 0.448 | 0.809 | 0.952 | 0.776 | 0.66 | 0.808 | 0.709
14 | NCI-H1648 | 0.869 |  | 1.44 |  | 0.793 |  |  |  |  |  |  |  |  |  |  |  |  |  |  | 
15 | NCI-H1703 | 0.385 | 0.576 | 0.372 | 0.362 | 0.422 | 0.254 | 0.259 | 0.232 | 0.275 |  |  |  |  |  | 0.377 | 0.377 | 0.234 | 0.355 | 0.436 | 0.195
16 | NCI-H1793 | 0.751 | 0.634 | 0.482 | 0.201 | 0.145 | 0.249 | 0.171 | 0.54 | 0.337 | 0.303 | 0.412 | 0.404 | 0.348 | 0.423 |  |  |  |  |  | 0.364
17 | NCI-H1944 | 0.389 | 0.373 |  | 0.376 | 0.358 | 0.374 | 0.346 | 0.353 | 0.288 | 0.171 | 0.194 | 0.214 | 0.239 | 0.229 |  |  |  |  |  | 0.336
18 | NCI-H2170 | 0.533 | 0.538 | 0.652 | 0.536 | 0.391 | 0.325 | 0.381 | 0.27 | 0.221 | 0.497 | 0.455 | 0.598 | 0.61 | 0.491 |  |  |  |  |  | 0.357
19 | NCI-H2342 | 0.368 | 0.427 | 0.501 | 0.431 | 0.476 |  |  |  |  | 0.293 | 0.275 | 0.29 | 0.29 | 0.345 |  |  |  |  |  | 
20 | SK-MES-1 | 0.675 | 0.641 | 0.727 | 0.626 | 0.22 | 0.37 | 0.265 | 0.394 | 0.34 | 0.42 | 0.311 | 0.387 | 0.316 | 0.258 |  |  |  |  |  | 0.348
21 | SW 900 | 0.903 | 0.935 | 1.15 | 0.797 | 0.549 |  |  |  |  | 0.479 | 0.456 | 0.503 | 0.666 | 0.337 |  |  |  |  |  | 
